# Assay results taken from US20250281473A1, “CDK Inhibitors And Their Use As Pharmaceuticals” (PRELUDE THERAPEUTICS INCORPORATED, priority 2024, published 2025).
# How the values were obtained:
# [1] = test system: TMD-8 subcutaneous xenograft; assay: TMD-8 (DLBCL) cell line-derived subcutaneous xenograft, tumor growth; type: in vivo
# Text: See FIG. 3 (Data represented as mean±SEM. N=8, ***P<0.001, ****P<0.0001 by Mann-Whitney U test). […]
# (§1) See FIG. 9 (Data represented as mean±SEM. N=8, *P<0.05, **P<0.001, ***P<0.001 by Mann-Whitney U test).
# [2] = test system: SUDHL4 subcutaneous xenograft; assay: SUDHL4 subcutaneous xenograft, tumor growth; type: in vivo; conditions: Formula (I) 30 mg/kg intravenously QW, BID q2h
# Text: (§2) See FIG. 3 (Data represented as mean±SEM. N=8, ***P<0.001, ****P<0.0001 by Mann-Whitney U test).
# [3] = test system: Karpas-422 subcutaneous xenograft; assay: Karpas-422 subcutaneous xenograft, tumor growth; type: in vivo; conditions: Formula (I) 30 mg/kg intravenously QW, BID q2h
# Text: as §2
# [4] = test system: LY2264 (DLBCL) patient-derived xenografts (PDX); assay: LY2264 (DLBCL) patient-derived xenograft, tumor growth; type: in vivo
# Text: See FIG. 6 (Data represented as mean±SEM. N=8, *P<0.05, **P<0.001, ***P<0.001 by Mann-Whitney U test).
# U-2932 CDX = assay: U-2932 (DLBCL) CDX, tumor growth; type: in vivo
# Text: as §1
# [5] = test system: Mino CDX model of Ibrutinib resistant MCL; assay: Mino CDX model of Ibrutinib resistant MCL, tumor growth; type: in vivo; conditions: Formula (I) i.v. 15 mg/kg, QW BID q2h
# Text: Anti-tumor activity remains similar to the parental Mino model. Ibrutinib-resistance was induced through repeat in vivo passage and treatment with Ibrutinib. See FIG. 15 (Data represented as mean±SEM. N=7, *P<0.05, ****P<0.0001 by Mann-Whitney U test).
# [6] = test system: DLBCL (SUDHL4, OCI-Ly-10, and TMD-8) and CLL (HG-3, JVM-3, and MEC-1) cell lines; assay: Caspase 3/7-Glo assay in DLBCL and CLL cell lines; type: cell-based; conditions: 6 h treatment
# [7] = test system: PBMCs derived from patients with untreated or relapsed/refractory (R/R) CLL; assay: Caspase-Glo 3/7 activity assay in CLL patient PBMCs; type: cell-based; conditions: 6 h treatment; ex vivo patient PBMCs
# [8] = test system: Ibrutinib-sensitive and Ibrutinib-resistant MCL cell lines; assay: CTG assay in MCL cell lines; type: cell-based; conditions: in vitro
smiles,measurement,setting,value
Cc1cnc(NC(=O)[C@H]2CCC[C@@H](NC(=O)CC#N)C2)cc1-c1cc(F)c2ncn(C(C)C)c2c1 [Formula (I)],tumor growth inhibition,"[1]; Example 1, FIG. 3, Formula (I) 7.5 mg/kg intravenously QW, BID q2h",49%
same,tumor growth inhibition,"[1]; Example 1, FIG. 3, Formula (I) 15 mg/kg intravenously QW, BID q2h",62%
same,tumor growth inhibition,"[1]; Example 1, FIG. 3, Formula (I) 30 mg/kg intravenously QW, BID q2h",83%
same,tumor growth inhibition,"[1]; Example 2, FIG. 5, Formula (I) monotherapy 7.5 mg/kg i.v., BID q2h QW",46%
same,tumor growth inhibition,"[1]; Example 3, FIG. 9, Formula (I) monotherapy 7.5 mg/kg i.v. QW BID q2h",49%
same,tumor growth inhibition,[2],125%
same,tumor growth inhibition,[3],108%
same,tumor growth inhibition,"[4]; Formula (I) alone, 30 mg/kg i.v. QW, BID q2h",40%
same,tumor growth inhibition,U-2932 CDX; Formula (I) monotherapy 7.5 mg/kg i.v. QW BID q2h,37%
same,tumor growth inhibition (in words),[5],significant tumor growth inhibition
same,induction of apoptosis (caspase 3/7),[6],induction of apoptosis
same,induction of apoptosis (caspase 3/7),[7],induction of apoptosis
same,activity in CTG assay (in words),[8],shows activity
"CC1(C)CCC(CN2CCN(c3ccc(C(=O)NS(=O)(=O)c4ccc(NCC5CCOCC5)c([N+](=O)[O-])c4)c(Oc4cnc5[nH]ccc5c4)c3)CC2)=C(c2ccc(Cl)cc2)C1 [Venetoclax, reference compound]",tumor growth inhibition,U-2932 CDX; Venetoclax 50 mg/kg QD orally,37%
"C=CC(=O)N1CCC([C@@H]2CCNc3c(C(N)=O)c(-c4ccc(Oc5ccccc5)cc4)nn32)CC1 [Zanubrutinib, reference compound]",tumor growth inhibition,"[1]; Example 2, FIG. 5, Zanubrutinib 5 mg/kg, BID orally",44%
same,tumor growth inhibition,"[4]; Zanubrutinib alone, 25 mg/kg QD orally",64%
